Measurements taken from patent publication US20100055111A1, “INDOLEAMINE 2,3-DIOXYGENASE, PD-1/PD-L PATHWAYS, AND CTLA4 PATHWAYS IN THE ACTIVATION OF REGULATORY T CELLS” (Med. College of Georgia Research Institute, Inc., priority 2007, published 2010).
Entries after “also recorded” stand apart in the source; their conditions may differ.

Assays:
TDLN cells = format: in vivo, mouse
PD-L1 and PD-L2 = PD-L1 and PD-L2 staining of DCs in readout assays; format: cell-based, mouse; details: Tregs from pre-activation cultures in which IDO was blocked with 1MT
Description: FACS staining. Antibodies were from BD-Pharmingen unless otherwise noted. Anti-mouse CD25-APC conjugate (clone PC61, cat. #17-0251-81) was from eBioscience; this conjugate gave brighter signal and better separation of CD25^+ cells than other conjugates from other suppliers. For intracellular staining of CHOP, live cells were first blocked for 10 minutes with mouse Fc Block (BD Pharmingen) in 10% fetal calf serum medium, stained with anti-CD4-FITC for 30 minutes on ice, washed with PBS, then fixed and permeablized for 20 minutes in 250 μl Cytoperm/Cytofix solution (BD Pharmingen) on ice. All subsequent staining and wash steps were in BD Permwash solution. Fixed cells were stained with 1:100 dilution of monoclonal anti-gadd153/CHOP (sc-7351, Santa Cruz Biotechnology), washed, and stained with secondary monoclonal rat anti-mouse-IgG1-PE (#550083, BD Biosciences). […] For Foxp3 staining, anti-Foxp3-PE antibody (clone FJK-16s) was obtained from eBioscience and used per the manufacturer's protocol. […]
After 24 hours, cultures were harvested and stained for PD-L1 and PD-L2 relative to CD11c. […] In FIG. 3D, IDO-activated Tregs (1×10^4/well) and anti-CD3/IL-2-activated Tregs (2×10^4/well) were prepared as in the previous panel, and added to readout assays with or without recombinant IL-2, anti-IL-10 plus anti-TGF-β blocking antibodies (100 μg/ml each), or PD-1/PD-L blocking antibodies. […]

P815 = details: Uyttenhove et al., 2003; concomitant administration of 1-MT; cited from earlier work
Tregs [1] = assay: DC adoptive transfer; format: in vivo, mouse; details: recipient mice treated with sustained-release 1MT pellets 5 mg/day; Tregs sorted after 4 days
Text: DC adoptive transfer. […] Briefly, total CD11c^+ DCs were sorted from TDLNs, pulsed with […] peptide (SEQ ID NO:1), and 5×10^4 DCs injected subcutaneously into each anteriomedial thigh of recipient mice. Recipients had been pre-loaded one day before DC injection with 5×10^6 sorted CD8^+ OT-I cells. After four days, the inguinal LNs draining the site of DC injection were removed, and CD4^+CD25^+ Tregs were isolated by cell sorting.
IDO^+ DCs from TDLNs activate Tregs in vivo. To test the hypothesis that Treg activation in TDLNs might be related to the presence of IDO-expressing DCs, the DC population (CD11c^+ cells) from TDLNs was isolated and transferred to new, non-tumor-bearing hosts. […] Four days after DC transfer, host Tregs were sorted from LNs draining the site of DC injection and tested for suppressor activity. […] Thus, the DC fraction from TDLNs, by itself, was sufficient to activate resting Tregs in new hosts, in an IDO-dependent fashion.

CHOP = assay: Intracellular staining for CHOP in Treg activation cultures; format: cell-based, mouse; details: 2 days
Description: FACS staining. Antibodies were from BD-Pharmingen unless otherwise noted. Anti-mouse CD25-APC conjugate (clone PC61, cat. #17-0251-81) was from eBioscience; this conjugate gave brighter signal and better separation of CD25^+ cells than other conjugates from other suppliers. For intracellular staining of CHOP, live cells were first blocked for 10 minutes with mouse Fc Block (BD Pharmingen) in 10% fetal calf serum medium, stained with anti-CD4-FITC for 30 minutes on ice, washed with PBS, then fixed and permeablized for 20 minutes in 250 μl Cytoperm/Cytofix solution (BD Pharmingen) on ice. All subsequent staining and wash steps were in BD Permwash solution. Fixed cells were stained with 1:100 dilution of monoclonal anti-gadd153/CHOP (sc-7351, Santa Cruz Biotechnology), washed, and stained with secondary monoclonal rat anti-mouse-IgG1-PE (#550083, BD Biosciences). […] For Foxp3 staining, anti-Foxp3-PE antibody (clone FJK-16s) was obtained from eBioscience and used per the manufacturer's protocol. For Foxp3 staining, assays omitted A1 bystander cells and Tregs were identified by CD4 expression, as for CHOP staining. Biotinylated anti-PD-L1 (clone MIH5) and anti-PD-L2 (clone TY25) were purchased from eBioscience.
GCN2-kinase is required for Treg activation. […] Treg activation cultures were set up as in FIG. 2, and CHOP expression measured by intracellular staining after two days.

Tregs [2] = assay: Treg activation culture and readout assays (agent in pre-activation step); format: cell-based, mouse; details: for IDO-induced Treg activation (suppressor activity of re-sorted Tregs in readout assays): agent added to activation (pre-activation) cultures with TDLN pDCs + OT-I + feeder cells, 1MT 200 uM, anti-CTLA4 10 ug/ml, tryptophan 250 uM, readout A1 T cells + CBA DCs
Description: Treg activation culture and readout assays. […] The pDC fraction (CD11c^+B220^+) was sorted from 2-6 pooled TDLNs (day 7-11 of tumor growth) and collected in medium on ice. […] […] […] After two days, cultures were harvested, stained for CD4, and Tregs isolated by sorting for CD4^+ cells. […] Re-sorted Tregs were added to readout assays containing 1×10^5 A1 cells, 2×10^3 CD11c^+ DCs from CBA spleen (or 5×10^4 B cells, as CD11c^NEG B220^+ spleen cells), plus H-Y peptide. For assays performed in transwells, Multiwell 96-well insert plates (1 uM pore size, BD-Falcon) were used and the number of cells in all groups was doubled.
Feeder layer. […] As a feeder layer we added T cell-depleted spleen cells (1×10^5 sorted CD4^NEGCD8^NEG cells) to all assays.
Resting Tregs, from spleens of mice without tumors, were co-cultured with IDO^+ DCs from TDLNs, then re-sorted and transferred to readout assays (A1 T cells+CBA DCs) to measure suppression. […] Co-cultures also contained a feeder layer of T-depleted spleen cells as described in the Methods section. After 30-48 hours, co-cultures were harvested and the Tregs recovered by sorting for CD4^+ cells. Since the Tregs were the only CD4^+ cells in the co-cultures, they could be unambiguously recovered.

OT-I cells in TDLNs = assay: CFSE labeling and T cell adoptive transfer; format: in vivo, mouse; details: B16-OVA tumors, 4 days after transfer
Text: CFSE labeling and T cell adoptive transfer. Mice were implanted with B16-OVA tumors. […] After four days, the TDLNs and contralateral LNs (CLN) were harvested and stained for 1B11 (BD-Pharmingen) vs. CD8.

Tregs [3] = assay: Mixed co-cultures with bystander A1 cells; format: cell-based, mouse
Description: A1 T cells and CBA DCs were added directly to the Treg pre-activation assay at the start of culture. Thus, the combined cultures comprised IDO^+ pDCs, OT-I T cells, Tregs, A1 T cells, CBA splenic DCs, and feeder layer. […] However, the mixed co-cultures addressed the specific question of whether IDO and activated Tregs could produce effective levels of suppression rapidly enough that they could suppress the bystander A1 cells before they could begin dividing. […] In each case, parallel titrations were performed with or without the addition of anti-CD3 mAb. […] In the absence of Tregs there was substantial proliferation of T cells in co-cultures, despite the presence of IDO^+ pDCs. However, the addition of fewer than 5000 Tregs was sufficient to suppress proliferation of all cells in culture. […] Thus, the results of the mixed co-culture model were similar to those using the separate pre-activation and re-sorting step.
In FIG. 12A, mixed co-cultures were established as in FIG. 11, comprising Treg activation cultures (IDO^+ pDCs, OT-I cells, Tregs, and feeder layer) plus the direct addition of CFSE-labeled CD4^+ sorted A1 T cells plus CBA DCs plus HY peptide. After 2-3 days the mixed co-cultures were harvested and stained for CD25 versus CFSE. […] In FIG. 12B, IDO-activated Tregs were sorted as described in FIG. 2 and added to readout assays of A1 cells plus CBA DCs plus HY peptide. […]

Foxp3 = Foxp3 upregulation in naive CD4+CD25NEG A1 T cells in cocultures with IDO+ pDCs; format: cell-based, mouse
Description: FACS staining. Antibodies were from BD-Pharmingen unless otherwise noted. […] For intracellular staining of CHOP, live cells were first blocked for 10 minutes with mouse Fc Block (BD Pharmingen) in 10% fetal calf serum medium, stained with anti-CD4-FITC for 30 minutes on ice, washed with PBS, then fixed and permeablized for 20 minutes in 250 μl Cytoperm/Cytofix solution (BD Pharmingen) on ice. All subsequent staining and wash steps were in BD Permwash solution. […] For Foxp3 staining, assays omitted A1 bystander cells and Tregs were identified by CD4 expression, as for CHOP staining.
Therefore, whether IDO would induce naive CD4+ cells to differentiate into Foxp3^+ cells in this system was studied. Cocultures were set up as shown for FIG. 6A, comprising IDO^+ pDCs, OT-I, feeder cells, mature Tregs (Thy1.1 congenic), plus a population of CD4^+CD25^NEG T cells (naive male-specific A1 T cells isolated from female mice). CBA splenic DCs were also added to serve as APCs for the A1 cells. After two days, co-cultures were harvested and stained for intracellular Foxp3.

Lewis Lung carcinoma = details: Friberg et al., 2002; cited from earlier work
Tregs in TDLNs = details: sustained-release 1MT throughout tumor growth
Description: Recombinant mouse IL-2 (R&D Systems) was used at 10 ng/ml.
Tregs from day seven TDLNs were sorted and added to readout assays (A1 T cells plus CBA DCs), with and without PD-1/PD-L blocking antibodies. […] Tregs from day seven tumors were tested in readout assays as above, with added isotype, PD-1/PD-L blocking antibodies, or a combination of anti-PD-1/PD-L plus IL-2 plus anti-IL-10/TGF-β antibodies.

IDO-activated Tregs = assay: Readout assays: suppression of A1 T cell proliferation by IDO-activated Tregs (agent in readout assay); format: cell-based, mouse; details: agent added to readout assay (A1 T cells + wild-type CBA DCs); antibodies 50 ug/ml each
Description: Treg activation culture and readout assays. […] The pDC fraction (CD11c^+B220^+) was sorted from 2-6 pooled TDLNs (day 7-11 of tumor growth) and collected in medium on ice. […] All cultures received a feeder layer of 1×10^5 T cell-depleted spleen cells (CD4^NEGCD8^NEG), as described below. […] After two days, cultures were harvested, stained for CD4, and Tregs isolated by sorting for CD4^+ cells. […] Re-sorted Tregs were added to readout assays containing 1×10^5 A1 cells, 2×10^3 CD11c^+ DCs from CBA spleen (or 5×10^4 B cells, as CD11c^NEG B220^+ spleen cells), plus H-Y peptide. For assays performed in transwells, Multiwell 96-well insert plates (1 uM pore size, BD-Falcon) were used and the number of cells in all groups was doubled.

anti-CD3-activated Tregs = assay: Readout assays: suppression by anti-CD3/IL-2-activated Tregs; format: cell-based, mouse; details: agent added to readout assay
Description: Treg activation culture and readout assays. […] The pDC fraction (CD11c^+B220^+) was sorted from 2-6 pooled TDLNs (day 7-11 of tumor growth) and collected in medium on ice. Pre-activation cultures contained 2×10^3 pDCs, 1×10^5 sorted CD8^+ OT-I cells, 100 nM […] peptide (SEQ ID NO:1), and 5×10^3 sorted CD4^+CD25^+ Tregs from spleens of B6 mice without tumors. All cultures received a feeder layer of 1×10^5 T cell-depleted spleen cells (CD4^NEGCD8^NEG), as described below. […] After two days, cultures were harvested, stained for CD4, and Tregs isolated by sorting for CD4^+ cells. […] Re-sorted Tregs were added to readout assays containing 1×10^5 A1 cells, 2×10^3 CD11c^+ DCs from CBA spleen (or 5×10^4 B cells, as CD11c^NEG B220^+ spleen cells), plus H-Y peptide. For assays performed in transwells, Multiwell 96-well insert plates (1 uM pore size, BD-Falcon) were used and the number of cells in all groups was doubled.
After 24 hours, cultures were harvested and stained for PD-L1 and PD-L2 relative to CD11c. […] In FIG. 3D, IDO-activated Tregs (1×10^4/well) and anti-CD3/IL-2-activated Tregs (2×10^4/well) were prepared as in the previous panel, and added to readout assays with or without recombinant IL-2, anti-IL-10 plus anti-TGF-β blocking antibodies (100 μg/ml each), or PD-1/PD-L blocking antibodies. Bars show SD for replicate wells in one of four similar experiments; *p<0.01 by ANOVA.

For `O=P1(N(CCCl)CCCl)NCCCO1` (centres unmarked) [cyclophosphamide], the “suppressor activity of TDLN cells after in vivo treatment” value (TDLN cells; B78H1-GMCSF tumors treated day 11, CY 150 mg/kg, 1MT pellets, TDLN cells 7 days later, readout BM3 T cells + B6 splenocytes) was “only slightly”.

For `Cn1cc(C[C@@H](N)C(=O)O)c2ccccc21` [1MT, 1-methyl-D-tryptophan], the “PD-ligand expression by DCs in readout assays” value (PD-L1 and PD-L2) is given as “low”, the “effect of IDO transfection of P815 on tumor growth in pre-immunized hosts” value (P815) is given as “substantially reversed” and the “activation of host Tregs by DCs from TDLNs” value (Tregs [1]) is given as “blocked”. The “CHOP expression in OT-I cells” value (CHOP) was “abrogated”, the “CHOP induction in Tregs” value (CHOP; anti-Ia^b 100 ug/ml) was “prevented” and the “IDO-induced Treg activation (suppressor activity of re-sorted Tregs in readout assays)” value (Tregs [2]) was “no suppressor activity; also recorded: complete abrogation of activation; also recorded: minimal suppression; also recorded: completely abolished”. For the same molecule, the Treg activation (Tregs [2]; feeder layer replaced by recombinant cytokines (IFNα + IL-10 + TGF-β1)) was “abrogated”, the “1B11 activation marker on OT-I in TDLNs” value (OT-I cells in TDLNs; oral 1MT 2 mg/ml in drinking water) was “uniformly upregulate” and the “cell division of OT-I in TDLNs (CFSE)” value (OT-I cells in TDLNs; oral 1MT) was “not able to undergo extensive cell division”. The “suppressor activity of Tregs in mixed co-cultures” value (Tregs [3]; IDO blocked by 1MT, 10-fold more Tregs, absence of anti-CD3 mAb) was “no spontaneous suppressor activity”, the “division of A1CFSE cells in mixed co-cultures” value (Tregs [3]; plus 1MT, 2-3 days) was “able to divide” and the “cell division of A1 cells (CFSE)” value (Foxp3; CFSE-labeled A1 and OT-I cells) was “divided”. For the same molecule, the “upregulation of Foxp3 in A1 cells” value (Foxp3; with H-Y peptide, 2 days) was “prevented”, the tumor outgrowth (Lewis Lung carcinoma) was “significantly delayed” and the “suppression by TDLN cells of untreated control mice” value (TDLN cells; 1MT added to the readout assays) was “not affected”. The “PD-1/PD-L-dependent type of Treg activity in TDLNs” value (Tregs in TDLNs) was “none”.

With `N[C@@H](Cc1c[nH]c2ccccc12)C(=O)O` [tryptophan] the “IDO-induced Treg activation (suppressor activity of re-sorted Tregs in readout assays)” value (Tregs [2]) was “blocked”.

B1: recombinant IL-2: Recombinant mouse IL-2 (R&D Systems), used at 10 ng/ml (protein, UniProt P04351 21-169, looked up)
Interleukin-2: APTSSSTSSSTAEAQQQQQQQQQQQQHLEQLLMDLQELLSRMENYRNLKLPRMLTFKFYLPKQATELKDLQCLEDELGPLRHVLDLTQSKSFQLEDAENFISNIRVTVVKLKGSDNTFECQFDDESATVVDFLRRWIAFCQSIISTSPQ
In the case of B1, the “suppression of T cell proliferation by IDO-activated Tregs” value (IDO-activated Tregs) is reported as “no effect” and the “suppression by anti-CD3-activated Tregs” value (anti-CD3-activated Tregs) is reported as “fully reversed”.
